# What was measured:
# [1] = Open-label multiple-dose PK, safety and tolerability study of NTZ 500 mg BID for 7 days in subjects with moderate or severe hepatic impairment vs normal hepatic function; details: for Cmax: Cmax GM; for AUC0-12 GM Ratio (Impaired/Control) / AUC0-t GM Ratio (Impaired/Control) / Cmax GM Ratio (Impaired/Control): steady state; for correlation coefficient AUC0-12 vs ALT / correlation coefficient AUC0-12 vs AST / correlation coefficient AUC0-12 vs Albumin / correlation coefficient AUC0-12 vs Bilirubin / correlation coefficient AUC0-12 vs INR / correlation coefficient Cmax vs ALT / correlation coefficient Cmax vs AST / correlation coefficient Cmax vs Albumin / correlation coefficient Cmax vs Bilirubin / correlation coefficient Cmax vs INR: highest among Pearson (P) and Spearman (S), natural (NS) and log (LS) scales, marker at screening
# Description: The study design was an open-label, nonrandomized, 2-center, multiple-dose, parallel-group study to evaluate the PK as well as the safety and tolerability of NTZ 500 mg BID administration for 7 days in males and females patients with moderate and severe hepatic impairment as compared to matched control healthy males and females patients with normal hepatic function.
# The objective was to assess the effect of hepatic impairment on the PK of tizoxanide (TZ; NTZ active metabolite), following repeated oral dose administration of NTZ 500 mg BID for 7 days in subjects with moderate or severe hepatic impairment and subjects with normal hepatic function.
# The following parameters used to measure the hepatic function were considered for the evaluation of the degree of hepatic impairment on NTZ PK: Child-Pugh (CP) score (*), serum albumin, serum total bilirubin, international normalized ratio (INR), aspartate aminotransferase (AST), alanine aminotransferase (ALT).
# (*) For the control match healthy subject group, CP score was not calculated, and the analysis was limited to hepatic impaired patients.
# Subjects were enrolled within the following groups based on their CP score at Screening: • Group 1: Normal hepatic function • Group 2: Moderate hepatic impairment (CP Class B) • Group 3: Severe hepatic impairment (CP Class C)
# On Day 1, the study subjects took 500 mg NTZ (1 tablet) with 240 mL (8 fluid ounces) of water 30 minutes after the start of the standardized breakfast. No food was allowed for at least 4 h after each dose. Blood PK samples were taken at the following timepoints: pre-dose (completed in fasted state prior to the start of the standardized breakfast), T1h, T2h, T3h, T4h, T5h, T6h, T7h, T8h, T10h and T12h post-dose.
# From Day 2 to Day 6, subjects received 500 mg of nitazoxanide (1 tablet) in the morning and in the evening for 6 consecutive days and on Day 7 the last dose was administered in the morning. Pre-dose blood PK sample was collected in fasted state prior to the start of the standardized breakfast each morning from Day 2 to Day 6.
# On Day 7, blood PK samples were taken at the following timepoints: Pre-dose (completed in fasted state prior to the start of the standardized breakfast), T1h, T2h, T3h, T4h, T5h, T6h, T7h, T8h, T10h, T12h, T14h and T16h post-dose. PK samples at T18h, T24h and T48h post dose were taken respectively on D8 and D9.
# The primary analysis was to assess the difference in the PK parameters (Cmax, AUC0-12 and AUC0-t) of total TZ after repeated oral administration of NTZ 500 mg BID for 7 days in subjects with moderate or severe hepatic impairment and subjects with normal hepatic function.
# The secondary analysis was to determine the accumulation ratios on AUC0-12 and Cmax measured after a single (Day 1) and a 7-day repeated (BID) oral administrations.
# The relationship between hepatic function markers (serum albumin, serum total bilirubin, INR, AST and ALT (obtained at screening)) and PK parameters (Cmax and AUC0-12) for TZ and TZ Glu (total and unbound) were investigated and evaluated using graphical and correlation techniques.
# Both Pearson (supporting a linear trend) and Spearman correlation (supporting a monotonic trend) coefficients were calculated. The correlation coefficients (p) were used to measure appropriately the association for most possible relationship and only strong correlations (i.e. p≥0.75) would support further modeling.
# [2] = tested on: BDL+LPS-induced liver impairment rat model; assay: Evaluation of NTZ efficacy on BDL+LPS-induced liver impairment in rats; assay type: in vivo, Sprague Dawley rats
# Description: The objective of the study was to assess the efficacy of NTZ to prevent LPS-induced inflammation, hepatic dysfunction and brain edema in fibrotic rats that underwent BDL surgery. BDL surgery was performed on 30 Sprague Dawley rats (Janvier). After anesthesia, a median laparotomy was performed to expose the liver and duodenum. The main bile duct was identified and dissected. After that, the bile duct was ligated in two parts: a first ligation was made in the middle of the bile duct, and the second ligation was made above the entrance of the pancreatic duct. The bile duct was then cut in the middle, to avoid recanalization. Fourteen days after surgery, a blood sample was collected from the sublingual vein to measure markers of hepatic injury (serum aspartate aminotransferase (AST), total bile acids and bilirubin) to stratify the animals into treatment groups. […] Two unoperated animals were included in the study as healthy controls. […] Nine rats with BDL received phosphate buffer saline (PBS, Fisher Scientific, USA) instead of LPS to be used as BDL controls. The body weight and food intake were monitored twice a week all along the study. During the fibrosis induction phase, each animal was observed once a day for the monitoring of clinical signs. Observations include changes in the skin, fur, eyes, occurrence of secretions and excretions and autonomic activity (lachrymation, piloerection, unusual respiratory pattern). Changes in gait, posture, stereotypes (e.g. excessive grooming, repetitive circling) or bizarre behavior (self-mutilation, walking backward) are also monitored. Animals were euthanized in case of weight loss of more than 25% for more than 3 consecutive days, absence of food consumption, deterioration of the general condition or vocalization. After LPS administration, each animal was continuously observed (appearance of the animal-change in fur, skin color, the degree of activity, vigilance-response to a stimulus, opening of the eyelids, activity, gait and behaviour) during 7 hours in order to assess the degree of severity of the inflammatory response and pain. Treatment with NTZ 100 mg/kg or vehicle (1% carboxymethylcellulose ([…], Sigma-Aldrich), 0.1% tween 80 ([…], Sigma-Aldrich)) was administered by gavage 1 hour before LPS injection. For oral gavage, NTZ powder was dissolved in CMC 1%, Tween 80 0.1% at the concentration of 10 mg/ml in an amber glass bottle, homogenized with a polytron and sonicated 10 seconds at a power of 10%. NTZ was kept under magnetic stirring until the administration to the rats at 10 ml/kg. LPS solution was prepared under a microbiological safety cabinet, in order to have a sterile solution to inject to rats. The LPS solution was dissolved in phosphate buffer saline (PBS) at 0.5 μg/ml, aliquoted and frozen until the day of experiment. LPS was administered at 2 ml/kg to the rats. All surviving animals were euthanized 3 h after LPS injection for plasma and tissues analyses. At the end of the study, by plasma level of hepatic function markers and cytokines, and brain edema have been evaluated.
# [3] = NTZ 100 mg/kg by gavage 1 hour before LPS, blood collected 3 hours after LPS
# [4] = total TZ, all groups combined, listed as Total TZ
# [5] = total TZ, Moderate (CP B) vs Control
# [6] = total TZ, Severe (CP C) vs Control
smiles,measurement,setting,value
"CC(=O)Oc1ccccc1C(=O)Nc1ncc([N+](=O)[O-])s1 [NTZ, nitazoxanide]",safety in patients with hepatic impairment,[1]; NTZ 500 mg BID for 7 days,safe
same,brain edema: change of brain water content compared to the BDL condition,"[2]; NTZ 100 mg/kg by gavage 1 hour before LPS, 3 h after LPS, p=0.006",−111%
same,decrease of circulating IL-1β,[2]; [3],91%
same,decrease of circulating IL-6,[2]; [3],93%
same,decrease of circulating TNFα,[2]; [3],94%
same,percentage of liver fibrosis,"[2]; NTZ 100 mg/kg by gavage 1 hour before LPS, euthanized 3 h after LPS, data not shown",Neither LPS nor NTZ treatment affected the percentage of liver fibrosis
same,"LPS-induced alteration of plasma total bile acids, total bilirubin, albumin and GGT","[2]; NTZ 100 mg/kg by gavage 1 hour before LPS, plasma 3 h after LPS",tended to reduce the LPS-induced alteration of these markers
same,reduction of plasma urea (LPS-induced renal impairment),"[2]; NTZ 100 mg/kg by gavage 1 hour before LPS, plasma 3 h after LPS, p=0.007",84%
same,reduction of plasma ASAT compared to the ACLF-Veh condition,"[2]; NTZ 100 mg/kg by gavage 1 hour before LPS, plasma 3 h after LPS, p=0.01",100%
same,reduction of plasma ALAT compared to the ACLF-Veh condition,"[2]; NTZ 100 mg/kg by gavage 1 hour before LPS, plasma 3 h after LPS, p=0.03",101%
same,"LPS-induced rise in ALT, change with NTZ","[2]; NTZ 100 mg/kg, conclusions",−101%
same,"LPS-induced rise in AST, change with NTZ","[2]; NTZ 100 mg/kg, conclusions",−100%
same,"LPS-induced rise in urea, change with NTZ","[2]; NTZ 100 mg/kg, conclusions",−84%
same,brain edema: water content (in words),"[2]; NTZ 100 mg/kg, conclusions",totally restored the water content to the level of BDL and healthy rats
"O=C(Nc1ncc([N+](=O)[O-])s1)c1ccccc1O [TZ, tizoxanide]",fraction of the dose recovered in urine over 12 h,"[1]; Day 1 and Day 7, regardless of the group",less than 1%
same,Tmax,"[1]; both, human, blood, oral, 500 mg",3.5 to 5 h
same,AUC(0-t),"[1]; both, human, blood, oral, 500 mg, AUC0-12 GM, total TZ, all groups combined (Total), DAY 1, single 500 mg NTZ dose",115 µM·h
same,AUC(0-t),"[1]; both, human, blood, oral, 500 mg, AUC0-12 GM, total TZ, all groups combined (Total), DAY 7, NTZ 500 mg BID",183 µM·h
same,AUC(0-t),"[1]; both, human, blood, oral, 500 mg, AUC0-12 GM, total TZ, steady state after NTZ 500 mg BID 7 days, Moderate (CP B)",145 µM·h
same,AUC(0-t),"[1]; both, human, blood, oral, 500 mg, AUC0-12 GM, total TZ, steady state after NTZ 500 mg BID 7 days, Severe (CP C)",264 µM·h
same,AUC(0-t),"[1]; both, human, blood, oral, 500 mg, AUC0-t GM, total TZ, steady state after NTZ 500 mg BID 7 days, Control group (normal hepatic function)",165 µM·h
same,AUC(0-t),"[1]; both, human, blood, oral, 500 mg, AUC0-t GM, total TZ, steady state after NTZ 500 mg BID 7 days, Moderate (CP B)",150 µM·h
same,AUC(0-t),"[1]; both, human, blood, oral, 500 mg, AUC0-t GM, total TZ, steady state after NTZ 500 mg BID 7 days, Severe (CP C)",297 µM·h
same,Cmax,"[1]; both, human, blood, oral, 500 mg, total TZ, all groups combined (Total), DAY 1, single 500 mg NTZ dose",24.8 µM
same,Cmax,"[1]; both, human, blood, oral, 500 mg, total TZ, all groups combined (Total), DAY 7, NTZ 500 mg BID",34.7 µM
same,Cmax,"[1]; both, human, blood, oral, 500 mg, total TZ, steady state after NTZ 500 mg BID 7 days, Control group (normal hepatic function)",35.3 µM
same,Cmax,"[1]; both, human, blood, oral, 500 mg, total TZ, steady state after NTZ 500 mg BID 7 days, Moderate (CP B)",28.2 µM
same,Cmax,"[1]; both, human, blood, oral, 500 mg, total TZ, steady state after NTZ 500 mg BID 7 days, Severe (CP C)",42 µM
same,half-life,"[1]; both, human, blood, oral, 500 mg, GM t1/2, Day 1",~120 min
same,half-life,"[1]; both, human, blood, oral, 500 mg, GM t1/2, Day 7, severe impairment group",240 min
same,AUC(0-t),"[1]; both, human, in vivo, oral, 500 mg, AUC0-12 GM, total TZ, steady state after NTZ 500 mg BID 7 days, Control group (normal hepatic function)",162 µM·h
same,CL renal,"[1]; both, human, urine, oral, 500 mg",0.0333 to 0.5 mL/min
same,AUC0-12 accumulation GM Ratio (Day 7/Day 1),[1]; [4],1.5980
same,Cmax accumulation GM Ratio (Day 7/Day 1),[1]; [4],1.3993
same,Cmax accumulation GM Ratio (Day 7/Day 1),"[1]; total TZ, all groups combined, listed as total TZ",around 1.4
same,AUC0-12 GM Ratio (Impaired/Control),[1]; [5],0.8960
same,AUC0-t GM Ratio (Impaired/Control),[1]; [5],0.9064
same,Cmax GM Ratio (Impaired/Control),[1]; [5],0.8008
same,AUC0-12 GM Ratio (Impaired/Control),[1]; [6],1.6353
same,AUC0-t GM Ratio (Impaired/Control),[1]; [6],1.7940
same,Cmax GM Ratio (Impaired/Control),"[1]; total TZ, Severe (CP C) vs Control, listed as Total TZ",1.1921
same,Cmax GM Ratio (Impaired/Control),"[1]; total TZ, Severe (CP C) vs Control, listed as total TZ",1.19
same,correlation coefficient AUC0-12 vs ALT,[1]; total analyte,P (LS): −0.07
same,correlation coefficient AUC0-12 vs AST,[1]; total analyte,P (NS): 0.17
same,correlation coefficient AUC0-12 vs Albumin,[1]; total analyte,P (NS): −0.4
same,correlation coefficient AUC0-12 vs Bilirubin,[1]; total analyte,P (NS): 0.43
same,correlation coefficient AUC0-12 vs INR,[1]; total analyte,P (NS): 0.46
same,correlation coefficient Cmax vs ALT,[1]; total analyte,P (LS): −0.17
same,correlation coefficient Cmax vs AST,[1]; total analyte,P (LS): −0.05
same,correlation coefficient Cmax vs Albumin,[1]; total analyte,P (NS): −0.25
same,correlation coefficient Cmax vs Bilirubin,[1]; total analyte,P (NS): 0.47
same,correlation coefficient Cmax vs INR,[1]; total analyte,P (NS): 0.46
same,correlation coefficient AUC0-12 vs ALT,[1]; unbound (u-) analyte,P (LS): −0.06
same,correlation coefficient AUC0-12 vs AST,[1]; unbound (u-) analyte,P (NS): 0.15
same,correlation coefficient AUC0-12 vs Albumin,[1]; unbound (u-) analyte,P (NS): −0.37
same,correlation coefficient AUC0-12 vs Bilirubin,[1]; unbound (u-) analyte,P (NS): 0.47
same,correlation coefficient AUC0-12 vs INR,[1]; unbound (u-) analyte,P (NS): 0.5
same,correlation coefficient Cmax vs ALT,[1]; unbound (u-) analyte,P (LS): −0.15
same,correlation coefficient Cmax vs AST,[1]; unbound (u-) analyte,S (NS): −0.09
same,correlation coefficient Cmax vs Albumin,[1]; unbound (u-) analyte,P (NS): −0.24
same,correlation coefficient Cmax vs INR,[1]; unbound (u-) analyte,P (NS): 0.49
same,correlation coefficient Cmax vs Bilirubin,"[1]; unbound (u-) analyte, listed as u-Tizoxanide",P (NS): 0.51
same,correlation coefficient Cmax vs Bilirubin,"[1]; unbound (u-) analyte, listed as unbound TZ",0.51
